# In patent US10889562B2, “Prodrugs of Nrf2 activating compounds and uses thereof” (Rigel Pharmaceuticals, Inc., priority 2018, dated 2021):
# Experiments:
# [1] = test system: NrF2 (Nuclear factor (erythroid-derived 2)-like 2); assay: NrF2 activation in a whole cell nuclear translocation assay; format: cell-based
# Protocol: Compounds are tested in a NrF2 (Nuclear factor (erythroid-derived 2)-like 2) translocation assay by adapting the methods set forth in U.S. Pat. No. 8,101,373, the disclosure of which is incorporated herein by reference. A result of NrF2 activation in the assay by the present compounds is an indication of their anti-inflammatory activity.
# In addition to monomethyl fumarate and dimethyl fumarate, bardoxolone methyl may be used as a positive control.
# [2] = Glutathione depletion assay (Michael reaction with reduced glutathione followed by 1H NMR); details: 2 equiv. reduced glutathione, d6-DMSO, 35° C.
# Source text: Accordingly, the present compounds may be assessed in vitro by reaction with glutathione as follows:
# (with the top securely fastened).
# In all the above cases, dis-appearance of the alkene proton signals from the starting material are used to determine the extent of Michael reaction with glutathione.
# As would be understood by those of skill in the art, the above experiments can be repeated by varying the equivalents of reduced glutathione (0.5 to 2 equivalents); the reactions can also be run in a mixture of d6-DMSO and D2O; and the temperature of the reaction can also be varied from room temperature to 35° C. (35° C. being used to mimic body temperature). As used herein “majority reaction” means a greater than 50% reduction in alkene proton signal as observed by ^1H NMR.
# [3] = test system: experimental autoimmune encephalomyelitis (EAE); assay: Experimental autoimmune encephalomyelitis (EAE) animal model; format: in vivo, mice (C57BL/6); details: mice, dosed at 60 mg/kg beginning on the day of immunization
smiles,measurement,setting,value
COC(=O)/C=C/C(=O)O [monomethylfumarate],EC50,[1],~127 µM
"COC(=O)/C=C/n1nnn(C)c1=O [methyl (E)-3-(4-methyl-5-oxo-4,5-dihydro-1H-tetrazol-1-yl)acrylate]",time to majority reaction with glutathione (greater than 50% reduction in alkene proton signal by 1H NMR),[2],≤ 30 h
"COC(=O)/C=C/n1nn[nH]c1=O [methyl (E)-3-(5-oxo-4,5-dihydro-1H-tetrazol-1-yl)acrylate]",time to majority reaction with glutathione (greater than 50% reduction in alkene proton signal by 1H NMR),[2],≤ 30 h
same,onset of disease paralysis,[3],significantly prevents the onset of disease paralysis
